Results as given in the supplement of paper PMC10307832.

Tests used:
Assay in all cases: relative viability (nuclei count vs DMSO), 5 days (fraction); higher = more cells survive
IA-LM = tested on: IA-LM
Method in brief: (§1)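 Nuclei were stained with Hoechst during a one-step fixation (final 0.05% Triton X-100, 1% formaldehyde, 1 ug/ml Hoechst) carried out 5 days after dosing, then counted on 4× images. The cells, lung cancer lines in 1536-well plates, had been dosed by pin tool the day after seeding with one drug alone or a fixed anchor-drug dose plus five library-drug doses (not always all listed) in √10 steps. Relative viability is the nuclei count in treated wells divided by that in vehicle wells, and each value is the median of duplicate plates.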

NCI-H1355 = tested on: NCI-H1355
Method in brief: as §1

LCLC-97TM1 = tested on: LCLC-97TM1
Method in brief: as §1

NCI-H520 = tested on: NCI-H520
Method in brief: as §1

NCI-H23 = tested on: NCI-H23
Method in brief: as §1

NCI-H1648 = tested on: NCI-H1648
Method in brief: as §1

NCI-H2347 = tested on: NCI-H2347
Method in brief: as §1

LC-2-ad = tested on: LC-2-ad
Method in brief: as §1

PC-3 [JPC-3] = tested on: PC-3 [JPC-3]
Method in brief: as §1

`COCC1(CO)C(=O)C2CCN1CC2` (configuration not stated) [PRIMA-1MET] + O=C(CCCCCCC(=O)Nc1ccccc1)NO [Vorinostat] (partner 1 µM) was tested, and the relative viability (IA-LM; first compound 0.2 µM) was 0.971, the relative viability (IA-LM; first compound 0.6325 µM) was 0.74 and the relative viability (IA-LM; first compound 2 µM) was 0.926. The relative viability (IA-LM; first compound 6.325 µM) was 1.06, the relative viability (IA-LM; first compound 20 µM) was 1.05 and the relative viability (NCI-H1355; first compound 0.2 µM) was 0.648. It also gave a relative viability (NCI-H1355; first compound 0.6325 µM) of 0.632, a relative viability (NCI-H1355; first compound 2 µM) of 0.556 and a relative viability (NCI-H1355; first compound 6.325 µM) of 0.671. The relative viability (NCI-H1355; first compound 20 µM) was 0.58, the relative viability (LCLC-97TM1; first compound 0.2 µM) was 0.547 and the relative viability (LCLC-97TM1; first compound 0.6325 µM) was 0.675. It also gave a relative viability (LCLC-97TM1; first compound 2 µM) of 0.747, a relative viability (LCLC-97TM1; first compound 6.325 µM) of 0.791 and a relative viability (LCLC-97TM1; first compound 20 µM) of 0.464. For the same molecule, the relative viability (NCI-H520; first compound 0.2 µM) was 0.807, the relative viability (NCI-H520; first compound 2 µM) was 0.621 and the relative viability (NCI-H520; first compound 6.325 µM) was 0.652. The relative viability (NCI-H520; first compound 20 µM) was 0.149, the relative viability (NCI-H23; first compound 0.2 µM) was 0.72 and the relative viability (NCI-H23; first compound 0.6325 µM) was 0.48. It also gave a relative viability (NCI-H23; first compound 2 µM) of 0.482, a relative viability (NCI-H23; first compound 6.325 µM) of 0.569 and a relative viability (NCI-H23; first compound 20 µM) of 0.0886. The relative viability (NCI-H1648; first compound 0.2 µM) was 0.668, the relative viability (NCI-H1648; first compound 2 µM) was 0.445 and the relative viability (NCI-H1648; first compound 20 µM) was 0.621. The relative viability (NCI-H2347; first compound 0.2 µM) was 0.574, the relative viability (NCI-H2347; first compound 0.6325 µM) was 0.656 and the relative viability (NCI-H2347; first compound 2 µM) was 0.348. The relative viability (NCI-H2347; first compound 6.325 µM) was 0.551, the relative viability (NCI-H2347; first compound 20 µM) was 0.327 and the relative viability (LC-2-ad; first compound 0.2 µM) was 0.798. The relative viability (LC-2-ad; first compound 0.6325 µM) was 0.578, the relative viability (LC-2-ad; first compound 2 µM) was 0.679 and the relative viability (LC-2-ad; first compound 6.325 µM) was 0.733. The relative viability (LC-2-ad; first compound 20 µM) was 0.645, the relative viability (PC-3 [JPC-3]; first compound 0.2 µM) was 0.964 and the relative viability (PC-3 [JPC-3]; first compound 0.6325 µM) was 0.579. For the same molecule, the relative viability (PC-3 [JPC-3]; first compound 2 µM) was 0.76, the relative viability (PC-3 [JPC-3]; first compound 6.325 µM) was 1.03 and the relative viability (PC-3 [JPC-3]; first compound 20 µM) was 0.747.
